Columns and labels:
bulrush [1] = experiment: Test Example 1: herbicidal efficacy on rice paddy weeds pre-emergence; assay type: in vivo, Scirpus juncoides; conditions: dosage 1000 g/ha, 21 days
false pimpernel [2] = experiment: as above; assay type: in vivo, Lindernia pyxidaria; conditions: dosage 1000 g/ha, 21 days
barnyard glass = experiment: Test Example 2: herbicidal efficacy on rice paddy weeds post-emergence; assay type: in vivo, Echinochloa crus-galli; conditions: dosage 1000 g/ha; post-emergence, one leaf stage; 21 days after treatment
Procedure, shortened: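 Plastic pots of 75 cm^2 were filled with clay loam soil and sown with barnyard glass and bulrush seeds, then topped with 75 cm^3 soil containing false pimpernel seeds. The pots were flooded to 5 cm water depth and held in a hot house. Twenty-one days after treatment, herbicidal efficacy was graded against an untreated control.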

bulrush [3] = experiment: as above; assay type: in vivo, Scirpus juncoides; conditions: dosage 1000 g/ha; post-emergence, one leaf stage; 21 days after treatment
false pimpernel [4] = experiment: as above; assay type: in vivo, Lindernia pyxidaria; conditions: dosage 1000 g/ha; post-emergence, one leaf stage; 21 days after treatment
[5] = test system: paddy rice plant (cultivar: Nihonbare); experiment: Test Example 3: phytotoxicity test for transplanted paddy rice plant; assay type: in vivo; conditions: dosage 1000 g/ha; transplanted rice, treated 5 days after transplantation; 21 days after treatment
Procedure, shortened: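 Clay loam soil was placed in a 75 cm^2 plastic pot and flooded to a water depth of 5 cm. Two Nihonbare paddy rice plants at the two-leaf stage were transplanted 1 cm deep and grown in a hot house. After treatment, pots stayed in the hot house for 21 days, and phytotoxicity was then graded against an untreated control.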

bulrush [6] = experiment: Test Example 4: low dosage test for rice paddy weeds; assay type: in vivo, Scirpus juncoides; conditions: 300 g/ha as an active ingredient; plants treated at the one leaf stage; 21 days after treatment; vs untreated control
Procedure, shortened: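 Bulrush sown in clay loam pots, flooded to 5 cm water in a hot house, treated at the one-leaf stage with formulated compound at 300 g/ha. Efficacy scored 0–4 against untreated control 21 days after treatment (4 = 90–100%, 0 = 0% inhibition).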

[7] = test system: transplanted paddy rice plant and Bulrush; experiment: Test Example 5: selectivity between transplanted paddy rice plant and weeds; assay type: in vivo; conditions: (highest dosage with no phytotoxicity to paddy rice)/(lowest dosage with effective level 4 on Bulrush); rice 3000-100 g/ha, Bulrush 300-10 g/ha; 21 days
Procedure, shortened: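 Transplanted paddy rice was treated at 3000, 1000, 300 and 100 g/ha active ingredient for phytotoxicity, and post-emergence bulrush at 300, 100, 30 and 10 g/ha. Plants were kept in a hothouse for 21 days. Growth inhibition versus untreated control was scored 0–4 (0%, 1–39%, 40–69%, 70–89%, 90–100%).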

Compound | Bulrush pre (herbicidal efficacy grade) (bulrush [1]) | False pimpernel pre (herbicidal efficacy grade) (false pimpernel [2]) | Burnyard grass post (herbicidal efficacy grade) (barnyard glass) | Bulrush post (herbicidal efficacy grade) (bulrush [3]) | False pimpernel post (herbicidal efficacy grade) (false pimpernel [4]) | Phytotoxicity to paddy rice [5] | Herbicide effect to Bulrush (bulrush [6]) | Selective Index [7]
CCC1CN(Cc2ccccc2N(C(=O)CC(C)C)S(=O)(=O)C(F)(F)F)C(=O)O1 (racemic) [1-53] | 4 (90%-100% of herbicidal efficacy or phytotoxicity) | 4 (90%-100% of herbicidal efficacy or phytotoxicity) | 4 (90%-100% of herbicidal efficacy or phytotoxicity) | 4 (90%-100% of herbicidal efficacy or phytotoxicity) | 4 (90%-100% of herbicidal efficacy or phytotoxicity) | 0 (0% of herbicidal efficacy or phytotoxicity) | 3 (70%-89% of herbicidal efficacy or phytotoxicity) | 10
COC(=O)N(c1ccccc1CN1CC(C)(C2CC2)OC1=O)S(=O)(=O)C(F)(F)F (racemic) [1-110] | 4 (90%-100% of herbicidal efficacy or phytotoxicity) | 4 (90%-100% of herbicidal efficacy or phytotoxicity) | 4 (90%-100% of herbicidal efficacy or phytotoxicity) | 4 (90%-100% of herbicidal efficacy or phytotoxicity) | 4 (90%-100% of herbicidal efficacy or phytotoxicity) | 2 (40%-69% of herbicidal efficacy or phytotoxicity) | 4 (90%-100% of herbicidal efficacy or phytotoxicity) | ≧30
CC(C)COC(=O)N(c1ccccc1CN1CC(C)(C)OC1=S)S(=O)(=O)C(F)(F)F [1-50] | 4 (90%-100% of herbicidal efficacy or phytotoxicity) | 4 (90%-100% of herbicidal efficacy or phytotoxicity) | 4 (90%-100% of herbicidal efficacy or phytotoxicity) | 4 (90%-100% of herbicidal efficacy or phytotoxicity) | 4 (90%-100% of herbicidal efficacy or phytotoxicity) | 2 (40%-69% of herbicidal efficacy or phytotoxicity) | 4 (90%-100% of herbicidal efficacy or phytotoxicity) | 10
COC(=O)N(c1ccccc1CN1CC(C)(C(C)(C)C)OC1=O)S(=O)(=O)C(F)(F)F (stereo not drawn) [1-153] | 4 (90%-100% of herbicidal efficacy or phytotoxicity) | 4 (90%-100% of herbicidal efficacy or phytotoxicity) | 4 (90%-100% of herbicidal efficacy or phytotoxicity) | 4 (90%-100% of herbicidal efficacy or phytotoxicity) | 4 (90%-100% of herbicidal efficacy or phytotoxicity) | 1 (1%-39% of herbicidal efficacy or phytotoxicity) | 4 (90%-100% of herbicidal efficacy or phytotoxicity) | 10
CCC1(C(C)C)CN(Cc2ccccc2NS(=O)(=O)C(F)(F)F)C(=O)O1 (stereo not drawn) [1-131] | 4 (90%-100% of herbicidal efficacy or phytotoxicity) | 4 (90%-100% of herbicidal efficacy or phytotoxicity) | 4 (90%-100% of herbicidal efficacy or phytotoxicity) | 4 (90%-100% of herbicidal efficacy or phytotoxicity) | 4 (90%-100% of herbicidal efficacy or phytotoxicity) | 2 (40%-69% of herbicidal efficacy or phytotoxicity) | 4 (90%-100% of herbicidal efficacy or phytotoxicity) | 10
CC(C)COC(=O)N(c1ccccc1CN1C(=O)OCC1C)S(=O)(=O)C(F)(F)F (stereo not drawn) [1-4] | 4 (90%-100% of herbicidal efficacy or phytotoxicity) | 4 (90%-100% of herbicidal efficacy or phytotoxicity) | 4 (90%-100% of herbicidal efficacy or phytotoxicity) | 4 (90%-100% of herbicidal efficacy or phytotoxicity) | 4 (90%-100% of herbicidal efficacy or phytotoxicity) | 2 (40%-69% of herbicidal efficacy or phytotoxicity) | 4 (90%-100% of herbicidal efficacy or phytotoxicity) | 10
CCCCOC(=O)N(c1ccccc1CN1CC(C)(C(C)C)OC1=O)S(=O)(=O)C(F)(F)F (racemic) [1-117] | 4 (90%-100% of herbicidal efficacy or phytotoxicity) | 4 (90%-100% of herbicidal efficacy or phytotoxicity) | 4 (90%-100% of herbicidal efficacy or phytotoxicity) | 4 (90%-100% of herbicidal efficacy or phytotoxicity) | 4 (90%-100% of herbicidal efficacy or phytotoxicity) | 2 (40%-69% of herbicidal efficacy or phytotoxicity) | 4 (90%-100% of herbicidal efficacy or phytotoxicity) | 10
COC(=O)N(c1ccccc1CN1CC2(CCCCC2)OC1=O)S(=O)(=O)C(F)(F)F [1-149] | 4 (90%-100% of herbicidal efficacy or phytotoxicity) | 4 (90%-100% of herbicidal efficacy or phytotoxicity) | 4 (90%-100% of herbicidal efficacy or phytotoxicity) | 4 (90%-100% of herbicidal efficacy or phytotoxicity) | 4 (90%-100% of herbicidal efficacy or phytotoxicity) | 2 (40%-69% of herbicidal efficacy or phytotoxicity) | 4 (90%-100% of herbicidal efficacy or phytotoxicity) | 10
CCC1(CC)CN(Cc2ccccc2N(C(=O)OCC(C)C)S(=O)(=O)C(F)(F)F)C(=O)O1 [1-62] | 4 (90%-100% of herbicidal efficacy or phytotoxicity) | 4 (90%-100% of herbicidal efficacy or phytotoxicity) | 4 (90%-100% of herbicidal efficacy or phytotoxicity) | 4 (90%-100% of herbicidal efficacy or phytotoxicity) | 4 (90%-100% of herbicidal efficacy or phytotoxicity) | 1 (1%-39% of herbicidal efficacy or phytotoxicity) | 4 (90%-100% of herbicidal efficacy or phytotoxicity) | 10
CC(C)COC(=O)N(c1ccccc1CN1CC(C)(C2CC2)OC1=O)S(=O)(=O)C(F)(F)F (stereo not drawn) [1-72] | 4 (90%-100% of herbicidal efficacy or phytotoxicity) | 4 (90%-100% of herbicidal efficacy or phytotoxicity) | 4 (90%-100% of herbicidal efficacy or phytotoxicity) | 4 (90%-100% of herbicidal efficacy or phytotoxicity) | 4 (90%-100% of herbicidal efficacy or phytotoxicity) | 1 (1%-39% of herbicidal efficacy or phytotoxicity) | 4 (90%-100% of herbicidal efficacy or phytotoxicity) | 10
CCC1(CC)CN(Cc2ccccc2N(C(=O)OC)S(=O)(=O)C(F)(F)F)C(=S)O1 [1-183] | 4 (90%-100% of herbicidal efficacy or phytotoxicity) | 4 (90%-100% of herbicidal efficacy or phytotoxicity) | 4 (90%-100% of herbicidal efficacy or phytotoxicity) | 4 (90%-100% of herbicidal efficacy or phytotoxicity) | 4 (90%-100% of herbicidal efficacy or phytotoxicity) | 1 (1%-39% of herbicidal efficacy or phytotoxicity) | 4 (90%-100% of herbicidal efficacy or phytotoxicity) | 10
CC(C)COC(=O)N(c1ccccc1CN1CCOC1=O)S(=O)(=O)C(F)(F)F [Compound No. 1-2] | 4 (90%-100% of herbicidal efficacy or phytotoxicity) | 4 (90%-100% of herbicidal efficacy or phytotoxicity) | 4 (90%-100% of herbicidal efficacy or phytotoxicity) | 4 (90%-100% of herbicidal efficacy or phytotoxicity) | 4 (90%-100% of herbicidal efficacy or phytotoxicity) | 1 (1%-39% of herbicidal efficacy or phytotoxicity) | 3 (70%-89% of herbicidal efficacy or phytotoxicity) | 3
